Counter-ions that a name gives are not always drawn.
Target: SARS-CoV-2 Mac1 (Severe acute respiratory syndrome coronavirus 2, UniProt P0DTD1)
Assay: biochemical
Conditions: for inhibition at 100 µM: read-out: %inhibition; for %inhibition: 100 µM, inhibitor

Row | SMILES | inhibition at 100 µM | %inhibition
1 | COc1ccc(-c2ccc3cc(C(=O)O)ccc3c2)cc1[C@]12C[C@H]3C[C@H](C[C@H](C3)C1)C2 [Adapalene] | 27.7% | 
2 | CC(C)(C)C(=O)OCOP(=O)(COCCn1cnc2c(N)ncnc21)OCOC(=O)C(C)(C)C [Adefovir Dipivoxil] | 37.1% | 
3 | Nc1[nH]cnc2ncnc1-2 [Adenine HCl] | 9.72% | 
4 | Nc1ncnc2nc[nH]c12 [Adenine sulfate] | 4.13% | 
5 | Nc1ncnc2c1ncn2[C@@H]1O[C@H](CO)[C@@H](O)[C@H]1O [Adenosine] | 0% | 
6 | CCN(CC)CCOC(=O)C(c1ccccc1)c1ccccc1 [Adiphenine HCl] | 6.54% | 
7 | CNCC(=O)c1ccc(O)c(O)c1 [Adrenalone HCl] | 6.88% | 
8 | CN(C)C/C=C/C(=O)Nc1cc2c(Nc3ccc(F)c(Cl)c3)ncnc2cc1O[C@H]1CCOC1 [Afatinib (BIBW2992) Dimaleate] |  | 21%
9 | CN(C)C/C=C/C(=O)Nc1cc2c(Nc3ccc(F)c(Cl)c3)ncnc2cc1O[C@H]1CCOC1 [Afatinib (BIBW2992)] |  | 0.3349%
10 | Cc1ccccc1-n1c(CF)nc2ccc(N)cc2c1=O [Afloqualone] | 0% | 
11 | Cn1ncc(Cl)c1-c1cc(C(=O)N[C@H](CN)Cc2cccc(F)c2)sc1Cl [Afuresertib (GSK2110183)] | 0% | 
12 | COc1ccc2cccc(CCNC(C)=O)c2c1 [Agomelatine] | 36.5% | 
13 | CC[C@H]1[C@@H]2C[C@H]3[C@@H]4N(C)c5ccccc5[C@]45C[C@@H]([C@H]2[C@H]5O)N3[C@@H]1O [Ajmaline] | 18.1% | 
14 | CCNC(=O)[C@@H]1CCCN1C(=O)[C@H](CCCN=C(N)N)NC(=O)[C@H](CC(C)C)NC(=O)[C@@H](C)NC(=O)[C@H](Cc1ccc(O)cc1)NC(=O)[C@H](CO)NC(=O)[C@H](Cc1c[nH]c2ccccc12)NC(=O)[C@H](Cc1cnc[nH]1)NC(=O)[C@@H]1CCC(=O)N1 [Alarelin Acetate] | 0.14% | 
15 | CCC[S+]([O-])c1ccc2[nH]c(NC(=O)OC)nc2c1 (stereo not drawn) [Albendazole Oxide] | 28% | 
16 | CCCSc1ccc2[nH]c(NC(=O)OC)nc2c1 [Albendazole] | 0% | 
17 | CN1CCC(=C2c3ccccc3CCn3c(C=O)cnc32)CC1 [Alcaftadine] | 0% | 
18 | CCc1cc2c(cc1N1CCC(N3CCOCC3)CC1)C(C)(C)c1[nH]c3cc(C#N)ccc3c1C2=O [Alectinib hydrochloride] | 9.69% | 
19 | NCCCC(O)(P(=O)(O)O)P(=O)(O)O [Alendronate sodium trihydrate] | 1.69% | 
20 | C=C1/C(=C\C=C2/CCC[C@]3(C)[C@@H]([C@H](C)CCCC(C)C)CC[C@@H]23)C[C@@H](O)C[C@@H]1O [Alfacalcidol] | 0% | 
21 | COc1cc2nc(N(C)CCCNC(=O)C3CCCO3)nc(N)c2cc1OC (stereo not drawn) [Alfuzosin HCl] | 0% | 
22 | C=CCc1cc(OC)c(O)c(C(=O)NCCO)c1 [Alibendol] | 15.2% | 
23 | CC(CN(C)C)CN1c2ccccc2Sc2ccccc21 (stereo not drawn) [Alimemazine Tartrate] | 12.1% | 
24 | COc1cc(Nc2ncc3c(n2)-c2ccc(Cl)cc2C(c2c(F)cccc2OC)=NC3)ccc1C(=O)O [Alisertib (MLN8237)] | 8.76% | 
25 | COCCCOc1cc(C[C@@H](C[C@H](N)[C@@H](O)C[C@H](C(=O)NCC(C)(C)C(N)=O)C(C)C)C(C)C)ccc1OC [Aliskiren Hemifumarate] | 0% | 

Row | SMILES | inhibition at 100 µM | %inhibition
26 | C=CCN1CCCC1CNC(=O)c1cc2nn[nH]c2cc1OC (stereo not drawn) [Alizapride HCl] | 0% | 
27 | C=CCNC(N)=S [Allylthiourea] | 7.98% | 
28 | CN(C)CCc1c[nH]c2ccc(CS(=O)(=O)N3CCCC3)cc12 [Almotriptan Malate] | 9.31% | 
29 | Cn1c(=O)cc(N2CCC[C@@H](N)C2)n(Cc2ccccc2C#N)c1=O [Alogliptin] | 12.8% | 
30 | Cc1[nH]cnc1CN1CCc2c(c3ccccc3n2C)C1=O [Alosetron Hydrochloride] | 16.8% | 
31 | CCOC(=O)[C@H]1O[C@@H]1C(=O)N[C@@H](CC(C)C)C(=O)NCCC(C)C [Aloxistatin] | 0% | 
32 | CCCCC[C@H](O)/C=C/[C@H]1[C@H](O)CC(=O)[C@@H]1CCCCCCC(=O)O [Alprostadil] | 0% | 
33 | C=CC[C@]1(O)CC[C@H]2[C@@H]3CCC4=CC(=O)CCC4=C3C=C[C@@]21C [Altrenogest] | 0% | 
34 | CN(C)c1nc(N(C)C)nc(N(C)C)n1 [Altretamine] | 19.5% | 
35 | Cc1c(-c2ccnn2C)cc(C(=O)NCc2ccc(S(C)(=O)=O)cn2)c(=O)n1-c1cccc(C(F)(F)F)c1 [Alvelestat (AZD9668)] | 0% | 
36 | CCN(CCCc1ccccc1)CCCc1ccccc1 [Alverine Citrate] | 8.25% | 
37 | C[C@H]1CN(C[C@H](Cc2ccccc2)C(=O)NCC(=O)O)CC[C@@]1(C)c1cccc(O)c1 [Alvimopan dihydrate] | 12.8% | 
38 | NC12CC3CC(CC(C3)C1)C2 [Amantadine HCl] | 0% | 
39 | COC(c1ccccc1)(c1ccccc1)[C@H](Oc1nc(C)cc(C)n1)C(=O)O [Ambrisentan] | 0% | 
40 | Nc1c(Br)cc(Br)cc1CN[C@H]1CC[C@H](O)CC1 [Ambroxol HCl] |  | 9.799%
41 | Nc1c(Br)cc(Br)cc1CN[C@H]1CC[C@H](O)CC1 [Ambroxol] |  | 0%
42 | Cc1cccc(C)c1N(CC(=O)Nc1ccc(-c2ncon2)cc1)C(=O)C1CCS(=O)(=O)CC1 [Amenamevir] | 8.46% | 
43 | Nc1c(CC(=O)O)cccc1C(=O)c1ccccc1 [Amfenac Sodium Monohydrate] | 4.46% | 
44 | NCCCNCCSP(=O)(O)O [Amifostine] | 0% | 
45 | NCC[C@H](O)C(=O)N[C@@H]1C[C@H](N)[C@@H](O[C@H]2O[C@H](CN)[C@@H](O)[C@H](O)[C@H]2O)[C@H](O)[C@H]1O[C@H]1O[C@H](CO)[C@@H](O)[C@H](N)[C@H]1O [Amikacin disulfate] | 0% | 
46 | N=C(N)NC(=O)c1nc(Cl)c(N)nc1N [Amiloride HCl dihydrate] |  | 4.635%
47 | N=C(N)NC(=O)c1nc(Cl)c(N)nc1N [Amiloride HCl] |  | 0%
48 | CCC1(c2ccc(N)cc2)CCC(=O)NC1=O (stereo not drawn) [Aminoglutethimide] | 17.3% | 
49 | N=C(N)NN [Aminoguanidine hydrochloride] | 4.16% | 
50 | Cn1c(=O)c2[nH]cnc2n(C)c1=O [Aminophylline] | 5.61% | 

Row | SMILES | inhibition at 100 µM | %inhibition
51 | Nc1nccs1 [Aminothiazole] | 1.18% | 
52 | CCN1CCCC1CNC(=O)c1cc(S(=O)(=O)CC)c(N)cc1OC (stereo not drawn) [Amisulpride] | 7.08% | 
53 | CN(C)CCC=C1c2ccccc2CCc2ccccc21 [Amitriptyline HCl] | 0% | 
54 | CCOC(=O)C1=C(COCCN)NC(C)=C(C(=O)OC)C1c1ccccc1Cl (stereo not drawn) [Amlodipine Besylate] |  | 25.29%
55 | CCOC(=O)C1=C(COCCN)NC(C)=C(C(=O)OC)C1c1ccccc1Cl (stereo not drawn) [Amlodipine] | 25.5% | 
56 | CC1(C)[C@@H](O[C@H]2O[C@H](C(=O)O)[C@@H](O)[C@H](O)[C@H]2O[C@@H]2O[C@H](C(=O)O)[C@@H](O)[C@H](O)[C@H]2O)CC[C@]2(C)[C@H]3C(=O)C=C4[C@@H]5C[C@@](C)(C(=O)O)CC[C@]5(C)CC[C@@]4(C)[C@]3(C)CC[C@@H]12 [Ammonium Glycyrrhizinate] | 0% | 
57 | CC(O)C(=O)O (stereo not drawn) [Ammonium lactate] | 16.4% | 
58 | CCN(CC)Cc1cc(Nc2ccnc3cc(Cl)ccc23)ccc1O [Amodiaquine dihydrochloride dihydrate] |  | 0%
59 | CCN(CC)Cc1cc(Nc2ccnc3cc(Cl)ccc23)ccc1O [Amodiaquine hydrochloride] |  | 7.946%
60 | CN(C)CCN1C(=O)c2cccc3cc(N)cc(c23)C1=O [Amonafide] | 16.3% | 
61 | CCC(C)(C)c1ccc(CC(C)CN2C[C@@H](C)O[C@@H](C)C2)cc1 (stereo partly drawn) [Amorolfine HCl] | 6.98% | 
62 | CC1(C)S[C@@H]2[C@H](NC(=O)[C@H](N)c3ccc(O)cc3)C(=O)N2[C@H]1C(=O)O [Amoxicillin Sodium] |  | 14.1%
63 | CC1(C)S[C@@H]2[C@H](NC(=O)[C@H](N)c3ccc(O)cc3)C(=O)N2[C@H]1C(=O)O [Amoxicillin trihydrate] |  | 5.69%
64 | CC1(C)S[C@@H]2[C@H](NC(=O)[C@H](N)c3ccc(O)cc3)C(=O)N2[C@H]1C(=O)O [Amoxicillin] |  | 9.546%
65 | C[C@@H]1[C@H](O)[C@@H](C)/C=C/C=C/C=C/C=C/C=C/C=C/C=C/[C@H](O[C@@H]2O[C@H](C)[C@@H](O)[C@H](N)[C@@H]2O)C[C@@H]2O[C@](O)(C[C@@H](O)C[C@@H](O)[C@H](O)CC[C@@H](O)C[C@@H](O)CC(=O)O[C@H]1C)C[C@H](O)[C@H]2C(=O)O [Amphotericin B] | 2.16% | 
66 | CC1(C)S[C@@H]2[C@H](NC(=O)[C@H](N)c3ccccc3)C(=O)N2[C@H]1C(=O)O [Ampicillin Trihydrate] |  | 20.11%
67 | CC1(C)S[C@@H]2[C@H](NC(=O)[C@H](N)c3ccccc3)C(=O)N2[C@H]1C(=O)O [Ampicillin sodium] |  | 0%
68 | CCOC(=O)OC(C)OC1=C(C(=O)Nc2ccccn2)N(C)S(=O)(=O)c2ccccc21 (stereo not drawn) [Ampiroxicam] | 5.86% | 
69 | CC(C)CN(C[C@@H](O)[C@H](Cc1ccccc1)NC(=O)O[C@H]1CCOC1)S(=O)(=O)c1ccc(N)cc1 [Amprenavir] | 0% | 
70 | CCCc1ncc(C[n+]2ccccc2C)c(N)n1 [Amprolium HCl] | 0% | 
71 | COc1cc(NS(C)(=O)=O)ccc1Nc1c2ccccc2nc2ccccc12 [Amsacrine hydrochloride] | 27% | 
72 | S=C(NCc1ccc2c(c1)OCO2)N1CCN(c2ncnc3c2oc2ccccc23)CC1 [Amuvatinib (MP-470)] | 24.8% | 
73 | O=C1CN2Cc3c(ccc(Cl)c3Cl)N=C2N1 [Anagrelide HCl] | 0% | 
74 | CN(C)N(C)C(=O)[C@@]1(Cc2ccccc2)CCCN(C(=O)[C@@H](Cc2c[nH]c3ccccc23)NC(=O)C(C)(C)N)C1 [Anamorelin] | 1.6% | 
75 | CC(C)(C#N)c1cc(Cn2cncn2)cc(C(C)(C)C#N)c1 [Anastrozole] | 10.3% | 

From publication doi:10.1101/2021.10.07.463234v2 (biorxiv, 2021)
